Data taken from PMC6278341 (Molecules, 2018).
Where “and” joins values, the source holds several entries; their conditions need not be identical. Equal entries are not always repeated.

Assays:
[1] = design: method as in PMID 19573609; settings: cited from earlier work
[2] = molecular target: D1 (Homo sapiens, UniProt P21728); experiment: Off target binding, D1 receptor
Excerpt: (§1) Off target screening data were obtained through the NIDA Addiction Treatment Discovery Program contract (ADA151001) with Oregon Health & Science University.

[3] = molecular target: T1, D4 (Homo sapiens, UniProt P21917); experiment: Off target binding, D4 receptor
T1 sequence (P21917 1-419): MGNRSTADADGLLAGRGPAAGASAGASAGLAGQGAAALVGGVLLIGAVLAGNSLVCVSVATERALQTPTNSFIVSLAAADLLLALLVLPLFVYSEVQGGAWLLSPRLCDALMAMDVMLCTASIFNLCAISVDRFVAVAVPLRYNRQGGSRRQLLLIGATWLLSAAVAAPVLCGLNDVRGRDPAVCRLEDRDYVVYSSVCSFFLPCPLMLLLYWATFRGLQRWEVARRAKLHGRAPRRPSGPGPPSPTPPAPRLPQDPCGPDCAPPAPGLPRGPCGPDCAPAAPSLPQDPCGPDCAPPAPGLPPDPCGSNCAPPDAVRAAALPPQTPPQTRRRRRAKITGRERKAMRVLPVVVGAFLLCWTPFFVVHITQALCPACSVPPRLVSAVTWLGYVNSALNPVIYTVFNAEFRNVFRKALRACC
Excerpt: as §1

[4] = molecular target: T2, 5-HT1A (Homo sapiens, UniProt P08908); experiment: Off target binding, 5-HT1A receptor
T2 sequence (P08908 1-422): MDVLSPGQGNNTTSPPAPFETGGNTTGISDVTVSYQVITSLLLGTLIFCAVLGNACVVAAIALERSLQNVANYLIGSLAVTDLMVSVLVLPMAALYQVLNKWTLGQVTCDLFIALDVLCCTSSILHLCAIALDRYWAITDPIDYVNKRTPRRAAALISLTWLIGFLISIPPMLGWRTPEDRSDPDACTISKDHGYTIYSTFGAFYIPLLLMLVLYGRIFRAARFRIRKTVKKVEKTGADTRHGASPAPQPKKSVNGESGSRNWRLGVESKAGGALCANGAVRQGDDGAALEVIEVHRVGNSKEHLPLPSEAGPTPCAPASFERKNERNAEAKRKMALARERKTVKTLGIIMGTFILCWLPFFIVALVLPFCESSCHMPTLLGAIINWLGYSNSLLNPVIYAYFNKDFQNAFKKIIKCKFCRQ
Excerpt: as §1

[5] = molecular target: 5-HT2A (Homo sapiens, UniProt P28223); experiment: Off target binding, 5-HT2A receptor
Excerpt: as §1

[6] = Stability of formulated radioligand in saline containing ethanol; assay type: physicochemical; settings: saline containing ethanol (10% v/v), up to 2.5 h; initial 99%
[7] = Lipophilicity (logD7.4), 1-octanol/sodium phosphate buffer; assay type: physicochemical; settings: room temperature, 1-octanol/sodium phosphate buffer pH 7.4, n = 6
Procedure: The radioligand in ethanol/saline was placed in sodium phosphate buffer (0.15 M, pH 7.4) for the duration of the experiment followed by the determination of its radiochemical purity to obtain information on its stability in buffer. […] Aliquots (1.0 mL) were distributed to eight borosilicate disposable culture tubes (13 × 100 mm). […] Radioactivities from six tubes were extracted with 1-octanol. Extraction was performed by vortexing the tubes with their content for 1 min. The tubes were centrifuged for 1 min. The organic and the aqueous phases were separated. Each phase was then sampled 50 μL and 200 μL respectively and counted separately in a well-type γ-counter (model 1480 Wizard; Perkin-Elmer) with an electronic window set between 360 and 1800 keV. The remaining two tubes, contained the radioactivity in buffer and served as stability measures for the radioligand. […] The radiochemical composition of the aqueous buffer after extraction with 1-octanol was determined with HPLC on an X-Terra C18 column (10 μm, 7.8 × 300 mm; Waters Corp., Milford, MA, USA) eluted with MeOH:H2O:Et3N (80:20:0.1 v/v/v) at 4.0 mL/min. […] The resulting radiochromatograms provided correction factors for the γ-counter counts to determine parent radioactivity only (corrected radioactivity). […] LogD7.4 was calculated according to the following formula:(1) logD7.4=log(cpm organic phase/corrected cpm aqueous phase)

[8] = Plasma free fraction by ultrafiltration; assay type: in vitro ADME; settings: human plasma, n = 3; read-out: Human plasma free fraction (fp)
Procedure: The mixture was incubated at room temperature for 10 min and then processed as described previously. The ultrafiltration components that contained high radioactivity were allowed to decay to within the optimal range of the γ-counter before they were counted. Quantification of the ultrafiltrates was performed gravimetrically.

[9] = Tissue stability, rat whole blood, plasma and brain homogenate; assay type: in vitro ADME; settings: at least 30 min at 37 °C
Procedure: (§2) These tissues were stored frozen at −70 °C but thawed on the day of analysis. […] Plasma analysis was performed as reported previously.

[10] = Tissue stability, human plasma and brain homogenate; assay type: in vitro ADME; settings: at least 30 min at 37 °C
Procedure: as §2

[11] = Tissue stability, monkey brain homogenate; assay type: in vitro ADME; settings: at least 30 min at 37 °C
Procedure: as §2

[12] = Cell uptake percentage in rat whole blood in vitro; assay type: in vitro ADME; settings: in vitro at 37 °C, n = 3
Procedure: The capillary tubes were then centrifuged, and Hct determined using a StatSpin® CritSpin™ Microhematocrit system (Los Angeles, CA, USA). Aliquots of anticoagulated rat blood (250 µL) were placed in three Eppendorf tubes (1.5 mL). […] Then whole blood (50 µL) was removed from each tube and counted in the γ-counter. The tubes were then centrifuged before removing plasma (50 µL) for γ-counting.

[13] = Rat ex vivo measurements (radiometabolites and tissue concentrations); assay type: in vivo; settings: for Unmetabolized [^11C]1: 30 min after i.v. injection
Procedure: The rats were then immediately sacrificed by decapitation, and their cortices, cerebella, and striata were excised. Each of the brain tissues was placed in MeCN (1 mL) and counted in a γ-counter. […] Water (500 μL) was then added and the tissues were further homogenized and counted in the γ-counter for calculating recoveries into MeCN. The homogenates were centrifuged at 10,000× g for 1 min. […] After separating plasma from blood cells, plasma samples (200 μL) were counted in γ-counter and plasma aliquots (450 μL) were each placed in MeCN (720 μL) along with of carrier 1 (5 μg) for deproteinization. After mixing the samples well, H2O (100 μL) was added. The samples were further mixed well, counted in a γ-counter, and centrifuged at 10,000× g for 1 min. Supernatants were injected onto the radio-HPLC and analyzed under the above conditions. All precipitates were counted in the γ-counter for calculating recoveries in the supernatants that were injected onto the HPLC.

[14] = molecular target: T3, D3R (Rattus norvegicus, UniProt P19020); experiment: PET imaging in rats; assay type: in vivo; settings: for Peak brain radioactivity concentration: rat PET
T3 construct: from tissue; host or cells: brain of living Sprague-Dawley rats
Procedure: (§3) In some rats, tariquidar (16 mg/kg, i.v.) was administered at 15 min before radioligand injection. […] For experiments in mice (wild type and P-gp/BCRP knock-out; male; Taconic FVB.129P2-Abcb1a^tm1BorAbcb1b^tm1BorAbcg2^tm1AhsN7; 27 ± 1.1 g), scans were acquired with a microPET Focus 120 camera for a duration of 90 min. […] Monkey (male rhesus macaque, 9.9 kg) experiments were acquired using microPET Focus 220 (Siemens Medical Solutions, Knoxville TN) for a duration of 90 min.
(§4) Images were reconstructed using Fourier rebinning followed by 2D OSEM with attenuation correction for rats and monkey and without attenuation correction for mice. Scatter correction was applied only for monkey. Volume of interests were delineated manually for rats and mice, and with a co-registered MRI template for monkey. All radioactivity was decay-corrected and expressed as standardized uptake value (SUV) which is radioactivity concentration corrected for subject weight and administered dose. Time activity curves in SUV were obtained and compared between conditions. The PET data analysis was performed using PMOD.

[15] = tested on: P-gp/BCRP; experiment: PET imaging in wild type and P-gp/BCRP knock-out mice; assay type: in vivo, mouse
Procedure: as §3, §4

[16] = tested on: D3R; experiment: PET imaging in monkey; assay type: in vivo, rhesus macaque; settings: for AUC 0-90 min higher than at baseline: tariquidar
Procedure: as §3, §4

T3 sequence (P19020 whole entry): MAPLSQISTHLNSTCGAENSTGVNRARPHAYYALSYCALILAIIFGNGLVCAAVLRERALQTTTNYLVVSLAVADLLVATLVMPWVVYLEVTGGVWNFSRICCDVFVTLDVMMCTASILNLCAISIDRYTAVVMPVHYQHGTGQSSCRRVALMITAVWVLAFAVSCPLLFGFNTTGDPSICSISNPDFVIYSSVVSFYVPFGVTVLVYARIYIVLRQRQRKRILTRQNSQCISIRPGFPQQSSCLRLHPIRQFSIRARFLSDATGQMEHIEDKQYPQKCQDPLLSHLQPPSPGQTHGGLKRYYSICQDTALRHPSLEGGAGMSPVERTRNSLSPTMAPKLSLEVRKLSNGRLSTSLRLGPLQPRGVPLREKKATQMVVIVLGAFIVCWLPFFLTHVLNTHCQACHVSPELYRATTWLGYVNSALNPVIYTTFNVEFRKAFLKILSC
Sequence of 5-HT2A (P28223 whole entry, species assumed): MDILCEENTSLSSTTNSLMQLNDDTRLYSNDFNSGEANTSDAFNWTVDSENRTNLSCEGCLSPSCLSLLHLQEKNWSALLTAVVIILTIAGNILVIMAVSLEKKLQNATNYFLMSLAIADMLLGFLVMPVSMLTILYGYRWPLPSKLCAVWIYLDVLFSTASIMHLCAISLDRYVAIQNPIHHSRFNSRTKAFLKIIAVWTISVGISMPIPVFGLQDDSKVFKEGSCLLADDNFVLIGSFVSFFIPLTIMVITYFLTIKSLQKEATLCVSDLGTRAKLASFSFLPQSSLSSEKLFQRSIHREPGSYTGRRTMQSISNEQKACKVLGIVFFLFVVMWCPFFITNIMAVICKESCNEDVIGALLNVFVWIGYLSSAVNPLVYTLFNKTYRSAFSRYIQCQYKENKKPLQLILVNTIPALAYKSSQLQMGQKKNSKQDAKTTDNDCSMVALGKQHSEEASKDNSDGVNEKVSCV
Sequence of D1 (P21728 whole entry): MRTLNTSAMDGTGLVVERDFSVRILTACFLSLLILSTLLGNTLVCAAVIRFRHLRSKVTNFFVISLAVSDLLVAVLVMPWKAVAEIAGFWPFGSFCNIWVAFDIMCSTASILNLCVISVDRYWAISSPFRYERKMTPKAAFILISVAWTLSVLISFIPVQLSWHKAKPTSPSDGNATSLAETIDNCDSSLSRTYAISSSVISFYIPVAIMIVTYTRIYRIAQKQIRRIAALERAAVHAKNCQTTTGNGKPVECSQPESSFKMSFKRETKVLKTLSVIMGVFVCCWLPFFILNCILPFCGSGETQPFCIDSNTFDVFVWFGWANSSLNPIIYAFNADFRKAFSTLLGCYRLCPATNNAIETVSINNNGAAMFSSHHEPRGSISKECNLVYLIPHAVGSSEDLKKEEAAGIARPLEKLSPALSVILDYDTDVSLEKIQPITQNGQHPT

`O=C(NCCCCN1CCN(c2cccc(Cl)c2O)CC1)c1cc2ccccc2[nH]1` [Compound 2, N-(4-(4-(3-Chloro-2-hydroxyphenyl)piperazin-1-yl)butyl)-1H-indole-2-carboxamide] gave a melting point of 148 to 149 °C.
In the case of `C[C@@H](N[C@@H]1C[C@H](c2cccc(O[11CH3])c2)N(c2ccc(C(F)(F)F)cc2)C1=O)c1ccccc1` [[^11C]MePPEP], the “plasma free fraction (fp)” value [1] is listed as 0.05 ± 0.01%.
Work on `COc1c(Cl)cccc1N1CCN(CCCCNC(=O)c2cc3ccccc3[nH]2)CC1` [Compound 1, N-(4-(4-(3-chloro-2-methoxyphenyl)piperazin-1-yl)butyl)-1H-indole-2-carboxamide] yielded a Ki [2] of 2290 ± 340 nM, a Ki [3] of 300 ± 100 nM and a Ki [4] of 92.3 ± 8 nM. It also gave a Ki [5] of 19.7 ± 1.4 nM.
In the case of `[11CH3]Oc1c(Cl)cccc1N1CCN(CCCCNC(=O)c2cc3ccccc3[nH]2)CC1` [[^11C]1, [O-methyl-^11C]N-(4-(4-(3-Chloro-2-methoxyphenyl)-piperazin-1-yl)butyl)-1H-indole-2-carboxamide], the “radiochemical purity after storage (stability)” value [6] is reported as 96%, the logD [7] is reported as 3.33 ± 0.13 and the fraction unbound at 10 min [8] is reported as 0.0015 ± 0.0001. It also gave a stability ([9]; rat brain homogenate) of 99.4%, a stability ([9]; rat plasma) of 98.8% and a stability ([9]; rat whole blood) of 100%. It also gave a stability ([10]; human brain homogenate) of 99.8%, a stability ([10]; human plasma) of 99.3% and a stability [11] of 100%. The “cellular uptake in rat whole blood” value [12] was 55.2 ± 1.1%, the “increase of rat brain tissue concentration, tariquidar-treated vs untreated” value ([13]; ex vivo, 30 min, tariquidar 16 mg/kg i.v.) was 2.4–2.6 fold and the “Unmetabolized [^11C]1” value ([13]; rat cerebellum, baseline) was 98.8%. For the same molecule, the “[^11C]1 Concentration” value ([13]; rat cerebellum, baseline, ex vivo 30 min) was 1.20 SUV, the “Unmetabolized [^11C]1” value ([13]; rat cerebellum, tariquidar-treated) was 98.8% and the “[^11C]1 Concentration” value ([13]; rat cerebellum, tariquidar-treated, ex vivo 30 min) was 2.84 SUV. For the same molecule, the “Unmetabolized [^11C]1” value ([13]; rat cortex, baseline) was 99.0%, the “[^11C]1 Concentration” value ([13]; rat cortex, baseline, ex vivo 30 min) was 1.33 SUV and the “Unmetabolized [^11C]1” value ([13]; rat cortex, tariquidar-treated) was 98.7%. The “[^11C]1 Concentration” value ([13]; rat cortex, tariquidar-treated, ex vivo 30 min) was 3.49 SUV, the “Unmetabolized [^11C]1” value ([13]; rat plasma, baseline) was 76% and 76.1% and the “[^11C]1 Concentration” value ([13]; rat plasma, baseline, ex vivo 30 min after i.v. injection) was 0.06 SUV. The “[^11C]1 Concentration” value ([13]; rat plasma, tariquidar-treated (16 mg/kg, i.v.), ex vivo 30 min) was 0.04 SUV, the “Unmetabolized [^11C]1” value ([13]; rat plasma, tariquidar-treated) was 69% and 68.9% and the “Unmetabolized [^11C]1” value ([13]; rat striatum, baseline) was 99.3%. The “[^11C]1 Concentration” value ([13]; rat striatum, baseline, ex vivo 30 min) was 1.36 SUV, the “Unmetabolized [^11C]1” value ([13]; rat striatum, tariquidar-treated) was 98.8% and the “[^11C]1 Concentration” value ([13]; rat striatum, tariquidar-treated, ex vivo 30 min) was 3.53 SUV. For the same molecule, the “[^11C]1 Concentration” value ([13]; rat whole blood, baseline, ex vivo 30 min) was 0.09 SUV, the “[^11C]1 Concentration” value ([13]; rat whole blood, tariquidar-treated, ex vivo 30 min) was 0.07 SUV and the “Peak brain radioactivity concentration” value ([14]; after tariquidar (16 mg/kg, i.v.)) was 3.4 SUV. For the same molecule, the “Peak brain radioactivity concentration” value ([14]; baseline) was 1.1 SUV, the “change in brain TACs on BP897 challenge” value ([14]; rats, tariquidar 16 mg/kg i.v., BP897 0.5 mg/kg i.v. 10 min before or 15 min after radioligand) was “No major changes” and the “change in brain TACs on spiperone challenge” value ([14]; rats, tariquidar 16 mg/kg i.v., spiperone 1.0 mg/kg i.v. 10 min before or 15 min after radioligand) was “No obvious changes”. The peak brain uptake ([15]; P-gp/BCRP KO mice) was 1.6 SUV, the “efflux transporter substrate behaviour” value ([15]; rodents) was “avid brain efflux transporter substrate” and the peak brain uptake ([15]; wild type mice) was 0.7 SUV. The “peak whole brain radioactivity uptake” value ([16]; baseline) was 2−3 SUV, the “AUC 0-90 min higher than at baseline” value ([16]; occipital cortex) was ~ 20% and the “AUC 0-90 min higher than at baseline” value ([16]; putamen) was 70%.
